Assay [1] relates to LTB4 production in fresh human whole blood. The assay is described as follows: FLAP Whole Blood Assay (Test B), inhibition of LTB4 production. The format is cell-based. To be noted: then calcium ionophore A23187, LTB4 by EIA. Here is the method:
FLAP Whole Blood Assay (Test B)
Compounds were tested for the inhibition of LTB4 production in fresh human whole blood obtained by venapuncture using heparin to prevent clotting. 1.5 μL compounds or DMSO carrier were dispensed into the wells of a 96-well deep-well plate in 3-fold dilution series. 500 μL hepamised whole blood was then added followed by incubation at 37° C. for 30 min (method A) or 4 h (method B). 100 μL blood was subsequently transferred in triplicate to pre-dispensed 0.5 μL 2 mM calcium ionophore (calcimycin; A23187) in a second 96-well plate. Following incubation at 37° C. for 20 min, the assays were stopped by adding 10 μL of stop solution (100 mM EGTA, pH 7.4) and the plate was transferred to ice. The plate was centrifuged at 3000 rpm at 4° C. for 10 min and […] was transferred to a fresh 96 well plate containing 90 μL pre-dispensed EIA assay buffer (0.1 M phosphate buffer+0.1% BSA). LTB4 was then measured using reagents from a commercial EIA (Cayman Chemicals). LTB4 production was defined as the LTB4 level in the presence of a given concentration of test compound minus the LTB4 level in the presence of 50 nM 5-[[4-[(2S,4R)-4-hydroxy-2-methyl-tetrahydropyran-4-yl]-2-thienyl]sulfanyl]-1-methyl-indolin-2-one. (Preparation of 5-[[4-[(2S,4R)-4-hydroxy-2-methyl-tetrahydropyran-4-yl]-2-thienyl]sulfanyl]-1-methyl-indolin-2-one was described in Org. Process Res. Dev., 2005, 9, 555-569 or EP623614 B1). Inhibition of LTB4 production was defined as the LTB4 level in the presence of a given concentration of test compound expressed as a % of the LTB4 level in the presence of DMSO. IC50 values were determined by plotting % inhibition versus log compound concentration and using a one site dose response model.

In assay [2] the target is FLAP (human ALOX5AP expressed in COS-7 cell membranes) (Homo sapiens (Human), UniProt P20292). The assay is described as follows: FLAP Binding Assay (Test A), competition binding with 3H-MK591 as tracer. The note with it: competition with 3H-MK591 (2 nM), membranes from COS-7 cells expressing human ALOX5AP, 60 min at rt. Here is the method:
FLAP Binding Assay (Test A) Compounds were tested in a competition binding assay using ^3H-MK591 as tracer. […] Med. Chem. […] A 100,000×g pellet from COS-7 cells stably transfected with a plasmid expressing human ALOX5AP was the source of FLAP. […] Following filtration, filter plates were dried 12 h at RT (or 50° C. for 1 hour). 50 μL scintillant was then added, the filterplates were sealed and radioactivity was measured in a microbeta counter. Specific binding was defined as total binding minus non-specific binding. Total binding was defined as ^3H-MK591 bound to membranes in the absence of competitor, non-specific binding was defined as ^3H-MK591 in the presence of 0.1 mM MK-591. IC50 values were determined by plotting % inhibition versus log compound concentration and using a one site dose response model.

[3] abbreviates: 0.5 h, method A: compound incubated with human whole blood at 37° C. for 30 min, read-out: IC50 nM (method A).
The mark [4] stands for this setting: method B: compound incubated with human whole blood at 37° C. for 4 h, read-out: IC50 nM (method B).

Read-outs that look alike come from different tables or passages of the source.

As usually defined, the IC50 is the concentration at which inhibition is half-maximal.

FLAP (human ALOX5AP expressed in COS-7 cell membranes), sequence (P20292 whole entry): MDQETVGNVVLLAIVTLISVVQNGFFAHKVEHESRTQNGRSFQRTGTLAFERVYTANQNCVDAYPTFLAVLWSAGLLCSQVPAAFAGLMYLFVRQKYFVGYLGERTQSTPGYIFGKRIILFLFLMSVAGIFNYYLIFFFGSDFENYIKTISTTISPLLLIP

For `COc1c(NC(=O)C2CCCCC2C(=O)c2ccc(-c3cc[nH]n3)cc2)cnn1C` (racemic) [Example 14, (1R,2R and 1S,2S)—N-(5-Methoxy-1-methyl-1H-pyrazol-4-yl)-2-[4-(1H-pyrazol-3-yl)benzoyl]cyclohexanecarboxamide], the IC50 in assay [1] (setting [3]) was determined as 654 nM; in assay [2], 400 nM.

As for `Cn1ncc(NC(=O)C2CCCCC2C(=O)c2ccc(-c3ccn[nH]3)cc2Cl)c1C(N)=O` (racemic) [Example 31, 4-[({(1R,2R and 1S,2S)-2-[2-Chloro-4-(1H-pyrazol-5-yl)benzoyl]-cyclohexyl}carbonyl)amino]-1-methyl-1H-pyrazole-5-carboxamide], the IC50 in assay [1] (setting [4]) is 390 nM; in assay [2], 190 nM.

Consider `Cc1cc(-c2ccc(C(=O)C3CCCCC3C(=O)Nc3cnn(C)c3C(N)=O)c(Cl)c2)[nH]n1` (racemic) [Example 32, 4-[({(1R,2R and 1S,2S)-2-[2-Chloro-4-(3-methyl-1H-pyrazol-5-yl)benzoyl]cyclohexyl}carbonyl)amino]-1-methyl-1H-pyrazole-5-carboxamide], for which the IC50 in assay [1] (setting [4]) is 915 nM; in assay [2], 170 nM.

`CCn1cc(NC(=O)C2CCCCC2C(=O)c2ccc(-c3ccn[nH]3)cc2)c(C(N)=O)n1` (racemic) [Example 42, 1-Ethyl-4-[({(1R,2R and 1S,2S)-2-[4-(1H-pyrazol-5-yl)benzoyl]-cyclohexyl}carbonyl)amino]-1H-pyrazole-3-carboxamide]: the IC50 is 149 nM in assay [1] (setting [3]) and 200 nM in assay [2].

In the case of `Cc1cc(NC(=O)C2CCCCC2C(=O)c2ccc(-c3ccn[nH]3)cc2)on1` (racemic) [Example 44, (1R,2R and 1S,2S)—N-(3-Methyl-1,2-oxazol-5-yl)-2-[4-(1H-pyrazol-5-yl)benzoyl]cyclohexanecarboxamide], the IC50 in assay [1] (setting [3]) was found to be 197 nM; in assay [2] it was 46 nM.

Regarding `Cc1coc(NC(=O)C2CCCCC2C(=O)c2ccc(-c3ccn[nH]3)cc2)n1` (racemic) [Example 45, (1R,2R and 1S,2S)—N-(4-Methyl-1,3-oxazol-2-yl)-2-[4-(1H-pyrazol-5-yl)benzoyl]cyclohexanecarboxamide], the IC50 in assay [2] was determined as 210 nM.

Consider `Cc1cc(-c2ccc(C(=O)C3CCCCC3C(=O)Nc3cnn(C)c3C#N)cc2)[nH]n1` (racemic) [Example 46, (1R,2R and 1S,2S)—N-(5-Cyano-1-methyl-1H-pyrazol-4-yl)-2-[4-(3-methyl-1H-pyrazol-5-yl)benzoyl]cyclohexanecarboxamide], for which the IC50 stood at 170 nM in assay [1] (setting [3]) and 86 nM in assay [2].

Regarding `O=C(Nc1nc(C2CC2)ns1)C1CCCCC1C(=O)c1ccc(-c2ccn[nH]2)cc1` (racemic) [Example 47, (1R,2R and 1S,2S)—N-(3-Cyclopropyl-1,2,4-thiadiazol-5-yl)-2-[4-(1H-pyrazol-5-yl)benzoyl]cyclohexanecarboxamide], the IC50 in assay [1] (setting [3]) turned out to be 260 nM; in assay [2] it was 53 nM.

Take `Cc1cc(NC(=O)C2CCCCC2C(=O)c2ccc(-c3ccn[nH]3)cc2)sn1` (racemic) [Example 48, (1R,2R and 1S,2S)—N-(3-Methyl-1,2-thiazol-5-yl)-2-[4-(1H-pyrazol-5-yl)benzoyl]cyclohexanecarboxamide]: the figures for the IC50 in assay [1] (setting [3]) and in assay [2] were 270 nM and 23 nM, respectively.

Take `Cc1nsc(NC(=O)C2CCCCC2C(=O)c2ccc(-c3ccn[nH]3)cc2)c1C#N` (racemic) [Example 49, (1R,2R and 1S,1S)—N-(4-Cyano-3-methyl-1,2-thiazol-5-yl)-2-[4-(1H-pyrazol-5-yl)benzoyl]cyclohexanecarboxamide]: the IC50 came to 640 nM in assay [1] (setting [3]) and 44 nM in assay [2].

Take `Cn1cc(NC(=O)C2CCCCC2C(=O)c2ccc(-c3cc[nH]n3)cc2)c(C(N)=O)n1` (single isomer, unassigned) [Example 1, 1-Methyl-4-[({(1R,2R or 1S,2S)-2-[4-(1H-pyrazol-3-yl)benzoyl]-cyclohexyl}carbonyl)amino]-1H-pyrazole-3-carboxamide]: the IC50 is 112 nM in assay [1] (setting [3]) and 73 nM in assay [2].

On to `Cc1cc(-c2ccc(C(=O)C3CCCCC3C(=O)Nc3cn(C)nc3C#N)cc2)[nH]n1` (single isomer, unassigned) [Example 5b, (1R,2R or 1S,2S)—N-(3-Cyano-1-methyl-1H-pyrazol-4-yl)-2-[4-(3-methyl-1H-pyrazol-5-yl)benzoyl]cyclohexanecarboxamide], for which the IC50 in assay [1] (setting [4]) worked out at 95 nM.

Take `Cn1cc(NC(=O)C2CCCCC2C(=O)c2ccc(-c3cc[nH]n3)cc2)c(C#N)n1` (single isomer, unassigned) [Example 12, (1R,2R or 1S,2S)—N-(3-Cyano-1-methyl-1H-pyrazol-4-yl)-2-[4-(1H-pyrazol-3-yl)benzoyl]cyclohexanecarboxamide]: the IC50 amounted to 100 nM in assay [1] (setting [4]) and 41 nM in assay [2].

Take `Cn1ncc(NC(=O)C2CCCCC2C(=O)c2ccc(-c3cc[nH]n3)cc2)c1C#N` (single isomer, unassigned) [Example 18a, (1R,2R or 1S,2S)—N-(5-Cyano-1-methyl-1H-pyrazol-4-yl)-2-[4-(1H-pyrazol-3-yl)benzoyl]cyclohexanecarboxamide]: the IC50 in assay [2] stood at 3700 nM.

Consider `Cc1cc(-c2ccc(C(=O)C3CCCCC3C(=O)Nc3cn(C)nc3C(N)=O)c(F)c2)[nH]n1` (single isomer, unassigned) [Example 36, 4-[({(1R,2R or 1S,2S)-2-[2-Fluoro-4-(3-methyl-1H-pyrazol-5-yl)benzoyl]-cyclohexyl}carbonyl)amino]-1-methyl-1H-pyrazole-3-carboxamide], for which the IC50 in assay [1] (setting [4]) turned out to be 148 nM.

For `Cc1cc(-c2ccc(C(=O)[C@@H]3CCCC[C@H]3C(=O)Nc3cnn(C)c3C(N)=O)cc2)[nH]n1` [Example 3, 1-Methyl-4-[({(1R,2R)-2-[4-(3-methyl-1H-pyrazol-5-yl)benzoyl]cyclohexyl}-carbonyl)amino]-1H-pyrazole-5-carboxamide], the IC50 in assay [1] (setting [4]) came to 70 nM.

Regarding `Cc1cc(-c2ccc(C(=O)[C@@H]3CCCC[C@H]3C(=O)Nc3cn(C)nc3C(N)=O)cc2)n[nH]1` [Example 4, 1-Methyl-4-[({(1R,2R)-2-[4-(3-methyl-1H-pyrazol-5-yl)benzoyl]-cyclohexyl}carbonyl)amino]-1H-pyrazole-3-carboxamide], in assay [1] (setting [4]), the IC50 is 290 nM.

For the compound `Cn1cc(NC(=O)[C@@H]2CCCC[C@H]2C(=O)c2ccc(-c3ccn[nH]3)cc2)c(OC(F)F)n1` [Example 9, (1R,2R)—N-[3-(Difluoromethoxy)-1-methyl-1H-pyrazol-4-yl]-2-[4-(1H-pyrazol-5-yl)benzoyl]cyclohexanecarboxamide], the IC50 in assay [1] (setting [4]) was 110 nM.

`Cc1cc(-c2ccc(C(=O)[C@@H]3CCCC[C@H]3C(=O)Nc3cnn(C)c3S(N)(=O)=O)cc2)[nH]n1` [Example 13, (1R,2R)-2-[4-(3-Methyl-1H-pyrazol-5-yl)benzoyl]-N-(1-methyl-5-sulfamoyl-1H-pyrazol-4-yl)cyclohexanecarboxamide]: the IC50 in assay [1] (setting [4]) was found to be 260 nM.

`CNC(=O)c1nn(C)cc1NC(=O)C1CCCCC1C(=O)c1ccc(-c2cc[nH]n2)cc1` [Example 20, N,1-Dimethyl-4-[({(1R,2R and 1S,2S)-2-[4-(1H-pyrazol-3-yl)benzoyl]-cyclohexyl}carbonyl)amino]-1H-pyrazole-3-carboxamide]: in assay [1] (setting [3]), the IC50 turned out to be 281 nM.

`Cn1nnc(NC(=O)C2CCCCC2C(=O)c2ccc(-c3ccn[nH]3)cc2)c1C1CC1` [Example 33, (1R,2R and 1S,2S)—N-(5-Cyclopropyl-1-methyl-1H-1,2,3-triazol-4-yl)-2-[4-(1H-pyrazol-5-yl)benzoyl]cyclohexanecarboxamide]: the IC50 in assay [1] (setting [4]) came out at 117 nM.

For the origin of these results see patent US10183947B2, “Pyrazole derivatives useful as 5-lipoxygenase activating protein (FLAP) inhibitors” (ASTRAZENECA AB, priority 2015, dated 2019).
